Data on 25 compounds can be found in patent US20250101034A1, “COMPOSITIONS USEFUL FOR MODULATING SPLICING” (SKYHAWK THERAPEUTICS, INC., priority 2021, published 2025).

In one test the test system is total ATXN3 protein. Description: ATXN3 total protein assay (MSD, SK-N-MC cells). Format: cell-based, Human. The conditions noted are these: 48 hours incubation, read-out: ATXN3 Potency - Protein IC50. As to the method: Human neuroblastoma SK-N-MC cells were seeded at 10,000 cells/well in 384 well plates one day prior to compound treatment. The concentrations of compounds were tested at appropriate doses ranging from 30 μM to 0.6 nM. After incubation for 48 hours, the cells were lysed with 25 μL of lysis buffer containing protease inhibitors, and total ATXN3 protein levels were assessed by Mesoscale Discovery (MSD) assay developed with one pair of anti-ATXN3 antibodies. The capture and detect antibodies were raised in mouse and rabbit respectively. Anti-rabbit MSD-ST antibody was used for secondary antibody.
ATXN3 recombinant protein was used for standards. The readouts were captured with 35 μL of MSD read buffer and multi-array 384-well high binding plates.

Test [1] concerns ATXN3 transcripts containing exon 4 (E4E5). Description: ATXN3 quantitative splicing assay (qPCR, SK-N-MC cells). It is filed as cell-based. The conditions noted are these: Homo sapiens, 24 h treatment, qPCR E4E5 primers/probe, read-out: ATXN3 Potency - Splicing E4E5 IC50. On the procedure:
Human neuroblastoma SK-N-MC cells were plated in 384-well plates at 20,000 cells/well. Twenty-four hours after plating, cells were treated with compounds for 24 h at appropriate concentrations ranging from 30 μM to 0.6 nM (0.3% DMSO). Treated cells were lysed in 15 μL of lysis buffer, and cDNA was synthesized using the Fast Advanced Cells-to-Ct kit. Two μL of each cDNA was used in qPCR reactions to confirm the exon 4 skipped transcripts of ATXN3. A second set of primers/probe E4E5 was used to detect the transcripts containing exon 4. The third set of primers/probe E8E9 was used to detect total gene level of ATXN3. The qPCR reactions were prepared in 384-well plates in 10 μL volume, using TaqMan™ Fast Advanced Master Mix with primers and probes shown in the table below. Reactions were run in a Quant Studio 6 qPCR instrument with default settings.
The primers and probes are listed below in Table 4.

Broadly, the IC50 is the concentration that gives 50% inhibition. Turning to `C#CC[C@H](N)Cc1sc2c(NCc3cccs3)cnnc2c1C` [Compound 142, 6-[(2S)-2-aminopent-4-yn-1-yl]-7-methyl-N-(thiophen-2-ylmethyl)thieno[3,2-c]pyridazin-4-amine], the IC50 (in the test with total ATXN3 protein; in test [1]) was 0.501 to 5 µM in each case.

Take `Clc1csc2c(NCc3cccs3)cnnc12` [Compound 67, 7-chloro-N-[(thiophen-2-yl)methyl]thieno[3,2-c]pyridazin-4-amine]: the IC50 (with total ATXN3 protein; in test [1]) was 10 to 40 µM throughout.

On to `Cc1c(C[C@@H](N)C[C@@H]2CC2(F)F)sc2c(NCc3cccs3)cnnc12` [Compound 128, 6-[(2S)-2-amino-3-[(1R)-2,2-difluorocyclopropyl]propyl]-7-methyl-N-(thiophen-2-ylmethyl)thieno[3,2-c]pyridazin-4-amine], for which the IC50 (in the test with total ATXN3 protein; in test [1]) was 10 to 40 µM each time.

Regarding `N[C@@H](CO)Cc1sc2c(NCc3cccs3)cnnc2c1Br` [Compound 94, (2R)-2-amino-3-(7-bromo-4-{[(thiophen-2-yl)methyl]amino}thieno[3,2-c]pyridazin-6-yl)propan-1-ol], the IC50 (in the test with total ATXN3 protein; in test [1]) was 0.101 to 0.5 µM each time.

For `Cc1c(C[C@@H](N)C[S+](C)[O-])sc2c(NCc3cccs3)cnnc12` (stereo partly drawn) [Compound 59, 6-[(2R)-2-amino-3-methanesulfinylpropyl]-7-methyl-N-[(thiophen-2-yl)methyl]thieno[3,2-c]pyridazin-4-amine], the IC50 fell in the range of 10 to 40 µM with total ATXN3 protein and 5 to 10 µM in test [1].

As for `Cc1c(C[C@@H](N)[C@@H](C)F)sc2c(NCc3cccs3)cnnc12` [Compound 111, 6-[(2R,3R)-2-amino-3-fluorobutyl]-7-methyl-N-[(thiophen-2-yl)methyl]thieno[3,2-c]pyridazin-4-amine], the IC50 (in the test with total ATXN3 protein; in test [1]) was 0.501 to 5 µM each time.

Take `C[C@H](N)Cc1sc2c(NCc3cccs3)cnnc2c1C1CC1` [Compound 80, 6-[(2S)-2-aminopropyl]-7-cyclopropyl-N-[(thiophen-2-yl)methyl]thieno[3,2-c]pyridazin-4-amine]: the IC50 (with total ATXN3 protein; in test [1]) was 0.501 to 5 µM in each case.

Regarding `N[C@@H](CO)Cc1sc2c(NCc3cccs3)cnnc2c1Cl` [Compound 91, (2R)-2-amino-3-(7-chloro-4-{[(thiophen-2-yl)methyl]amino}thieno[3,2-c]pyridazin-6-yl)propan-1-ol], the IC50 (in the test with total ATXN3 protein; in test [1]) was 0.101 to 0.5 µM in each case.

With `Cc1c(C[C@H](C)N)sc2c(NCc3cnco3)cnnc12` [Compound 46, 6-[(2S)-2-aminopropyl]-7-methyl-N-[(1,3-oxazol-5-yl)methyl]thieno[3,2-c]pyridazin-4-amine], the IC50 (in the test with total ATXN3 protein; in test [1]) was 10 to 40 µM throughout.

As to `Cc1c(C[C@H](C)N)sc2c(NC(=O)c3cccs3)cnnc12` [Compound 51, N-{6-[(2S)-2-aminopropyl]-7-methylthieno[3,2-c]pyridazin-4-yl}thiophene-2-carboxamide], the IC50 (in the test with total ATXN3 protein; in test [1]) was 10 to 40 µM each time.

`Cc1c(CC(N)CC2(F)CC2)sc2c(NCc3cccs3)cnnc12` (centres unmarked) [Compound 117, 6-[2-amino-3-(1-fluorocyclopropyl)propyl]-7-methyl-N-[(thiophen-2-yl)methyl]thieno[3,2-c]pyridazin-4-amine]: the IC50 (with total ATXN3 protein; in test [1]) was 5 to 10 µM each time.

Turning to `Cc1c(C[C@@H](N)CC(F)(F)F)sc2c(NCc3cccs3)cnnc12` [Compound 50, 6-[(2S)-2-amino-4,4,4-trifluorobutyl]-7-methyl-N-[(thiophen-2-yl)methyl]thieno[3,2-c]pyridazin-4-amine], the IC50 (with total ATXN3 protein; in test [1]) was 0.501 to 5 µM in each case.

As to `CCc1c(C[C@H](C)N)sc2c(NCc3cccs3)cnnc12` [Compound 23, 6-[(2S)-2-aminopropyl]-7-ethyl-N-[(thiophen-2-yl)methyl]thieno[3,2-c]pyridazin-4-amine], the half-inhibitory concentration (IC50) (with total ATXN3 protein; in test [1]) was 5 to 10 µM in each case.

Regarding `Cc1csc2c(NC(=O)c3cccs3)cnnc12` [Compound 89, N-{7-methylthieno[3,2-c]pyridazin-4-yl}thiophene-2-carboxamide], the IC50 (with total ATXN3 protein; in test [1]) was 10 to 40 µM throughout.

For the compound `Cc1c(C[C@H](C)N)sc2c(NCn3cccc3)cnnc12` [Compound 43, 6-[(2S)-2-aminopropyl]-7-methyl-N-[(1H-pyrrol-1-yl)methyl]thieno[3,2-c]pyridazin-4-amine], the IC50 (with total ATXN3 protein; in test [1]) was 5 to 10 µM each time.

Consider `Cc1c(C[C@H](C)N)sc2c(NCc3cccs3)cnnc12` [Compound 4, 6-[(2S)-2-aminopropyl]-7-methyl-N-(thiophen-2-ylmethyl)thieno[3,2-c]pyridazin-4-amine], for which the IC50 in the test with total ATXN3 protein was 0.101 to 0.5 µM; in test [1], 0.501 to 5 µM.

As to `Cc1c(C[C@@H](N)CCF)sc2c(NCc3ccco3)cnnc12` [Compound 31, 6-[(2S)-2-amino-4-fluorobutyl]-N-[(furan-2-yl)methyl]-7-methylthieno[3,2-c]pyridazin-4-amine], the IC50 (in the test with total ATXN3 protein; in test [1]) was 0.501 to 5 µM throughout.

As to `Cc1c(C[C@H](C)N)sc2c(NCc3ccco3)cnnc12` [Compound 2, 6-[(2S)-2-aminopropyl]-N-(furan-2-ylmethyl)-7-methylthieno[3,2-c]pyridazin-4-amine], the IC50 (in the test on total ATXN3 protein; in test [1]) was 0.501 to 5 µM throughout.

For `Cc1c([C@H](C)[C@H](C)N)sc2c(NCc3cccs3)cnnc12` [Compound 26], the IC50 (in the test on total ATXN3 protein; in test [1]) was 10 to 40 µM throughout.

In the case of `Cc1c(C[C@H]2CCCN2)sc2c(NCc3cccs3)cnnc12` [Compound 69, 7-methyl-6-[(2R)-pyrrolidin-2-ylmethyl]-N-(thiophen-2-ylmethyl)thieno[3,2-c]pyridazin-4-amine], the IC50 (in the test on total ATXN3 protein; in test [1]) was 10 to 40 µM in each case.

Consider `Cc1c(C[C@@H](N)CO)sc2c(NCc3ccsc3)cnnc12` [Compound 7, (2R)-2-amino-3-(7-methyl-4-{[(thiophen-3-yl)methyl]amino}thieno[3,2-c]pyridazin-6-yl)propan-1-ol], for which the IC50 (in the test with total ATXN3 protein; in test [1]) was 0.501 to 5 µM throughout.

For `Cc1c(C[C@@H](N)COC(F)(F)F)sc2c(NCc3cccs3)cnnc12` [Compound 132, 6-[(2R)-2-amino-3-(trifluoromethoxy)propyl]-7-methyl-N-[(thiophen-2-yl)methyl]thieno[3,2-c]pyridazin-4-amine], the IC50 (with total ATXN3 protein; in test [1]) was 10 to 40 µM each time.

Take `Cc1c(CCN)sc2c(NCc3ccco3)cnnc12` [Compound 21, 6-(2-aminoethyl)-N-[(furan-2-yl)methyl]-7-methylthieno[3,2-c]pyridazin-4-amine]: the IC50 (with total ATXN3 protein; in test [1]) was 10 to 40 µM throughout.

For `N[C@@H](CO)Cc1sc2c(NCc3ccco3)cnnc2c1Cl` [Compound 96, (2R)-2-amino-3-(7-chloro-4-{[(furan-2-yl)methyl]amino}thieno[3,2-c]pyridazin-6-yl)propan-1-ol], the IC50 (in the test with total ATXN3 protein; in test [1]) was 0.101 to 0.5 µM throughout.

Consider `Cc1c(C[C@H](C)N)sc2c(NCc3cccs3)c(Br)nnc12` [Compound 66, 6-[(2S)-2-aminopropyl]-3-bromo-7-methyl-N-[(thiophen-2-yl)methyl]thieno[3,2-c]pyridazin-4-amine], for which the IC50 (in the test on total ATXN3 protein; in test [1]) was 10 to 40 µM throughout.
